From paper PMC6153800, “Structure-Based Drug Design and Characterization of Sulfonyl-Piperazine Benzothiazinone Inhibitors of DprE1 from Mycobacterium tuberculosis” (Antimicrobial Agents and Chemotherapy, 2018)
≈ marks a conversion by molar mass, not a printed value. Like-named read-outs stand apart in the source and are kept apart here.

How the values were obtained:
[1] = mouse microsomes; cited from earlier work
[2] = human microsomes; cited from earlier work
[3] = system: M. tuberculosis H37Rv; experiment: microbe, parasite or virus in culture; assay type: cell-based
[4] = Water solubility, shake flask method; assay type: physicochemical; conditions: for solubility at 3 days: 25 °C, water, thermodynamic from solid
Protocol: Water solubility measurements were performed using the shake flask method ([28]). Approximately 1 ml of water was added to 1 mg of compound in an Eppendorf tube, followed by incubation for 3 days at 25°C with shaking at 800 rpm. Suspensions were centrifuged at 16,100 × g for 10 min, and the supernatant was filtered using 0.22-μm-pore size filters. Filtrates were injected onto a high-performance liquid chromatography (HPLC) column (Dionex), and the amount of compound was quantified using a calibration curve.

[5] = in vitro; conditions: for microsomal CLint at 1 μg/ml / microsomal CLint: microsomes, pH 7.4; for Microsomal stability / clearance (in words), human: human microsomes; for Microsomal stability / clearance (in words), mouse: mouse microsomes
Protocol: The intrinsic clearance (CLint) of compounds was measured in both mouse and human liver microsomes. Briefly, 100 μg of mouse (CD-1) or human liver microsomes (both from Invitrogen) were mixed in 0.1 M phosphate buffer (pH 7.4) containing 0.01 μl of compound dissolved in dimethyl sulfoxide (DMSO) at 10 mg/ml in a final volume of 50 μl. In parallel, an NADPH-regenerating system (Promega) was prepared in 0.1 M phosphate buffer (pH 7.4). […] After 0, 5, 15, 30, and 60 min, the reactions were terminated by transferring […] into 100 μl of acetonitrile and placing the mixture on ice for 30 min for full protein precipitation. […] After 0 and 60 min, the reactions were terminated, prepared and analyzed as previously described.

[6] = system: HepG2 cells; conditions: for Cytotoxicity (in words) / TD50 / Concentration of mild cytotoxicity: HepG2 cells; for TD50: 3 days; for Selective index: ratio TD50 (HepG2) to MIC99 (H37Rv)
[7] = system: M. tuberculosis H37Rv; experiment: Murine model of chronic TB; assay type: in vivo, Mycobacterium tuberculosis; conditions: BALB/cByJ mice, 50 mg/kg by gavage 5 days a week for 4 weeks
[8] = Mycobacterium tuberculosis, H37RV, REMA, 7H9 broth, 6 days + 24 h resazurin, read-out: MIC99 H37Rv
[9] = Mycobacterium tuberculosis, H37Rv, read-out: MIC

| SMILES | MIC [3, 8] [µg/mL] | melting point [°C] | solubility at 3 days [4] [µg/mL] | microsomal CLint at 1 μg/ml ([5]; CD-1, mouse) [µL/min/mg] | Microsomal stability / clearance (in words), human [5] | microsomal CLint at 1 μg/ml ([5]; human) [µL/min/mg] | TD50 [6] [µg/mL] | also measured |
| --- | --- | --- | --- | --- | --- | --- | --- | --- |
| C[C@H]1COC2(CCN(c3nc(=O)c4cc(C(F)(F)F)cc([N+](=O)[O-])c4s3)CC2)O1 [BTZ043] | – | – | – | – | – | – | – | CLint mouse microsome [1]: 16.5 μl/min/mg protein; CLint human microsome [2]: 4.20 μl/min/mg protein |
| CC(=O)c1ccc(S(=O)(=O)N2CCN(c3nc(=O)c4cc(C(F)(F)F)cc([N+](=O)[O-])c4s3)CC2)cc1 [compound 11326119] | 50 | 280 to 282 | – | – | – | – | – | – |
| CCCCS(=O)(=O)N1CCN(c2nc(=O)c3cc(C(F)(F)F)cc([N+](=O)[O-])c3s2)CC1 [compound 11626093] | 0.001 | 215 to 219 | 0.105 ± 0.05 (≈ 0.219 µM) | 42 | metabolically stable | 6.4 | >100 | Fold less active than MCZ (MIC99 relative to MCZ) ([3]; H37Rv): 5 fold; MIC ([3]; H37Rv): 1 µg/mL (≈ 2.08 µM); Times less soluble in water than 11626095, 11626092 and 11626091 [4]: at least 100 times; Microsomal stability / clearance (in words), mouse [5]: highly unstable; Cytotoxicity (in words) [6]: not cytotoxic; Selective index [6]: >100,000 |
| O=c1nc(N2CCN(S(=O)(=O)c3cccc4cnccc34)CC2)sc2c([N+](=O)[O-])cc(C(F)(F)F)cc12 [compound 11626094] | 0.01 | 243 to 245 | 0.088 ± 0.04 (≈ 0.16 µM) | 24 | highly unstable | 277 | 100.00 | Times less soluble in water than 11626095, 11626092 and 11626091 [4]: at least 100 times; Cytotoxicity (in words) [6]: not cytotoxic; Selective index [6]: 10,000 |
| O=c1nc(N2CCN(S(=O)(=O)c3cc(Cl)c(Cl)s3)CC2)sc2c([N+](=O)[O-])cc(C(F)(F)F)cc12 [compound 11326122] | 0.8 | 265 to 267 | – | – | – | – | – | – |
| O=c1nc(N2CCN(S(=O)(=O)c3ccc(Cl)s3)CC2)sc2c([N+](=O)[O-])cc(C(F)(F)F)cc12 [compound 11326121] | 0.03 | 210 to 213 | – | – | – | – | – | – |
| O=c1nc(N2CCN(S(=O)(=O)C3CC3)CC2)sc2c([N+](=O)[O-])cc(C(F)(F)F)cc12 [compound 11626091] | 0.003 | 201 to 204 | 8.6 ± 3.8 (≈ 18.5 µM) | 2.7 | lowest clearances | 9.7 | 8.10 | Fold less active than MCZ (MIC99 relative to MCZ) ([3]; H37Rv): 15 fold; Microsomal stability / clearance (in words), mouse [5]: lowest clearances; Bacterial burden in lungs lower than untreated control [7]: 0.46 log10 CFU; Bacterial burden in spleens lower than untreated control [7]: 1.03 log10 CFU; Concentration of mild cytotoxicity [6]: around 10 μg/ml; Selective index [6]: 2,700 |
| CCCCc1ccc(S(=O)(=O)N2CCN(c3nc(=O)c4cc(C(F)(F)F)cc([N+](=O)[O-])c4s3)CC2)cc1 [compound 11326124] | 800 | 226 to 229 | – | – | – | – | – | – |
| NC(=O)N1c2ccccc2C=Cc2ccccc21 [Carbamazepine, reference compound] | – | – | – | – | – | – | – | microsomal CLint ([5]; CD-1, mouse): 0.6 µL/min/mg; microsomal CLint ([5]; human): 0.4 µL/min/mg |
| Cc1oncc1S(=O)(=O)N1CCN(c2nc(=O)c3cc(C(F)(F)F)cc([N+](=O)[O-])c3s2)CC1 [compound 11326126] | 1.6 | 281 to 283 | – | – | – | – | – | – |
| CCn1cc(S(=O)(=O)N2CCN(c3nc(=O)c4cc(C(F)(F)F)cc([N+](=O)[O-])c4s3)CC2)c(C)n1 [compound 11326058] | 0.4 | 218 to 220 | – | – | – | – | – | – |
| CCS(=O)(=O)N1CCN(c2nc(=O)c3cc(C(F)(F)F)cc([N+](=O)[O-])c3s2)CC1 [compound 11626092] | 0.003 | 204 to 207 | 10.7 ± 4.6 (≈ 23.6 µM) | 3 | lowest clearances | 1.4 | 8.90 | MIC [3, 9]: 0.003 µg/mL (≈ 0.00663 µM); Microsomal stability / clearance (in words), mouse [5]: lowest clearances; Concentration of mild cytotoxicity [6]: around 10 μg/ml; Selective index [6]: 2,967 |
| O=c1nc(N2CCN(S(=O)(=O)c3ccc(C(F)(F)F)cc3)CC2)sc2c([N+](=O)[O-])cc(C(F)(F)F)cc12 [compound 11326123] | 0.1 | 222 to 225 | – | – | – | – | – | – |
| O=c1nc(N2CCN(S(=O)(=O)c3ccc(OC(F)(F)F)cc3)CC2)sc2c([N+](=O)[O-])cc(C(F)(F)F)cc12 [compound 11326120] | 0.1 | – | – | – | – | – | – | – |
| Cc1nn(C)cc1S(=O)(=O)N1CCN(c2nc(=O)c3cc(C(F)(F)F)cc([N+](=O)[O-])c3s2)CC1 [compound 11326061] | 0.4 | 200 to 203 | – | – | – | – | – | – |
| CCC(C)(C)c1ccc(S(=O)(=O)N2CCN(c3nc(=O)c4cc(C(F)(F)F)cc([N+](=O)[O-])c4s3)CC2)cc1 [compound 11326125] | 0.5 | 231 to 233 | – | – | – | – | – | – |
| Cc1noc(C)c1S(=O)(=O)N1CCN(c2nc(=O)c3cc(C(F)(F)F)cc([N+](=O)[O-])c3s2)CC1 [compound 11326056] | 0.06 | 265 to 267 | – | – | – | – | – | – |
| CO[C@H]1/C=C/O[C@@]2(C)Oc3c(C)c(O)c4c(O)c(c(/C=N/N5CCN(C)CC5)c(O)c4c3C2=O)NC(=O)/C(C)=C\C=C\[C@H](C)[C@H](O)[C@@H](C)[C@@H](O)[C@@H](C)[C@H](OC(C)=O)[C@@H]1C [Rifampin, reference compound] | 0.0008 | – | – | – | – | – | 100.00 | – |
| CS(=O)(=O)N1CCN(c2nc(=O)c3cc(C(F)(F)F)cc([N+](=O)[O-])c3s2)CC1 [compound 11626095] | 0.02 | 186 to 188 | 10.6 ± 1.8 (≈ 24.2 µM) | 0.9 | lowest clearances | 1 | 7.80 | MIC [3, 9]: 0.02 µg/mL (≈ 0.0456 µM); Microsomal stability / clearance (in words), mouse [5]: lowest clearances; Concentration of mild cytotoxicity [6]: around 10 μg/ml; Selective index [6]: 390 |
| O=c1nc(N2CCN(S(=O)(=O)c3cccs3)CC2)sc2c([N+](=O)[O-])cc(C(F)(F)F)cc12 [compound 11326059] | 0.004 | 210 to 214 | < 0.01 | 18.6 | medium clearances | 16.8 | 100 | Times less soluble in water than 11626095, 11626092 and 11626091 [4]: at least 100 times; Microsomal stability / clearance (in words), mouse [5]: medium clearances; Cytotoxicity (in words) [6]: not cytotoxic; Selective index [6]: 25,000 |
| COC(=O)c1sccc1S(=O)(=O)N1CCN(c2nc(=O)c3cc(C(F)(F)F)cc([N+](=O)[O-])c3s2)CC1 [compound 11326128] | 0.1 | 127 to 129 | – | – | – | – | – | – |
| O=c1nc(N2CCN(S(=O)(=O)C3CCCCC3)CC2)sc2c([N+](=O)[O-])cc(C(F)(F)F)cc12 [compound 11326127] | 0.006 | – | < 0.01 | 19 | medium clearances | 21.5 | >100 | MIC99 ([3]; Mycobacterium tuberculosis, H37RV): 6 nM (≈ 3.04 ng/mL); Times less soluble in water than 11626095, 11626092 and 11626091 [4]: at least 100 times; Microsomal stability / clearance (in words), mouse [5]: medium clearances; Cytotoxicity (in words) [6]: not cytotoxic |
